Measurements from paper PMC5895803, “Inhibition of cancer stem cell like cells by a synthetic retinoid” (Nature Communications, 2018).
In brackets after ≈: the same amount, converted by molar mass. Entries after “also recorded” stand apart in the source; their conditions may differ.

What was measured:
Water solubility = conditions: PBS (pH 7.4), pH 7.4, aqueous buffer, kinetic from dmso stock
CYP 2C9 = biological target: T1, CYP 2C9 (Homo sapiens, UniProt P11712); assay: Cytochromes enzyme inhibition assay, human liver microsomes; format: in vitro ADME; conditions: substrate diclofenac (10 µM)
T1 construct: from tissue; host or cells: human liver microsomes
T1 sequence (P11712 whole entry): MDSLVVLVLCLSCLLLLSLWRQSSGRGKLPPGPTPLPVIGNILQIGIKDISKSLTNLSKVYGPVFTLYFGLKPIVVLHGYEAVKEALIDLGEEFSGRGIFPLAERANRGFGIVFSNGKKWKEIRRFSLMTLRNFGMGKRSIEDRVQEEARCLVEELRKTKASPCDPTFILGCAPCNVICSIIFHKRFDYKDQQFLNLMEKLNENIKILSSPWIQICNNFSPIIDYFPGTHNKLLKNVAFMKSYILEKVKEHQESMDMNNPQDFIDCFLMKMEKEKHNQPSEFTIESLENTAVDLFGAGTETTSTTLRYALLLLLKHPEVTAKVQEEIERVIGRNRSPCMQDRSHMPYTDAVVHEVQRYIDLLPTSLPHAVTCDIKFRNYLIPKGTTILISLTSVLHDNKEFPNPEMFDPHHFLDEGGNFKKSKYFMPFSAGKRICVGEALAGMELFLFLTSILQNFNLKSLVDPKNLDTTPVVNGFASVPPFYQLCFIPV

hERG channels = hERG channels (Homo sapiens, UniProt Q12809); assay: Functional hERG blocking assay, patch clamp in CHO hERG cell line
Sequence of hERG channels (Q12809 whole entry): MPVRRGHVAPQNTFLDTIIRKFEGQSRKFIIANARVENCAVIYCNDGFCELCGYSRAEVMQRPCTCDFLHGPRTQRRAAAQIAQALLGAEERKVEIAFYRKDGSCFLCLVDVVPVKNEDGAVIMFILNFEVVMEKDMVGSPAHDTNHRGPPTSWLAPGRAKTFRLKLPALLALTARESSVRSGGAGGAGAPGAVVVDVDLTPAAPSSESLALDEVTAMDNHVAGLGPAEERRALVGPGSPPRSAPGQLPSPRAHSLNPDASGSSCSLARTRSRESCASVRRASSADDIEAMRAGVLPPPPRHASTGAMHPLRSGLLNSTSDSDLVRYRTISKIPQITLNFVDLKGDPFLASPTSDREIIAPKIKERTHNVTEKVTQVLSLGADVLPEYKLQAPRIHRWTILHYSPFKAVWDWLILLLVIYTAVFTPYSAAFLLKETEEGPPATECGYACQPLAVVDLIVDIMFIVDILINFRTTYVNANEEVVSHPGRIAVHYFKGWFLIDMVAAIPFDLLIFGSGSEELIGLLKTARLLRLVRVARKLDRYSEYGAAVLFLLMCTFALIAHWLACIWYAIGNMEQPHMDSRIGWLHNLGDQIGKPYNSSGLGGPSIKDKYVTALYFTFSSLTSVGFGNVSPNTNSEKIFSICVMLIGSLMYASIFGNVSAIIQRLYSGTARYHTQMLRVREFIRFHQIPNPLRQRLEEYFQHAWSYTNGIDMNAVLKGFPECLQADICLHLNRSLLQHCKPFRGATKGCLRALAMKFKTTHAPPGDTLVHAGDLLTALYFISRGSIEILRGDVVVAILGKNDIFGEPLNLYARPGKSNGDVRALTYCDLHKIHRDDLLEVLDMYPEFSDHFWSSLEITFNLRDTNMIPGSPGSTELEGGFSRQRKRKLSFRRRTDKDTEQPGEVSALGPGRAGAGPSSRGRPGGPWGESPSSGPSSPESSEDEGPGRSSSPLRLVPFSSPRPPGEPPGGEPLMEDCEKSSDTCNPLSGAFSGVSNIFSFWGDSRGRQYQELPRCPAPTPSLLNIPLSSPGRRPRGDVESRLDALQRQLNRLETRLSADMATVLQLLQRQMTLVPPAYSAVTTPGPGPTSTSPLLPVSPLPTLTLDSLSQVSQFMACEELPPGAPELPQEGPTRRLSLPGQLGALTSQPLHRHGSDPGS

HaCaT cells = assay: Non-cancerous human epidermal HaCaT cells, 2D rigid dishes and 3D soft fibrin gels; format: cell-based; conditions: for HaCaT cell numbers on 2D rigid plastic / HaCaT colony growth in 3D soft fibrin gel: 10 μM; for HaCaT colony growth in 3D soft fibrin gel: day 7; for Inhibitory effects towards non-cancerous HaCaT cells: 2D rigid dishes and 3D soft fibrin gels
Protocol: Supplementary Figure 21. WYC-209 has less inhibitory effects on non-cancerous human epidermal cell line HaCaT. (a) Non-cancerous human epidermal HaCaT cells were seeded into 3D soft fibrin gel and treated with 0.1, 1, or 10 μM of WYC-209, WYC-209A, or WYC-209B on day 0, and colony sizes were quantified on day 7.
Bright field images were representative images of colonies on day 7. Scale bars, 50 μm. (b) Quantitation of cell numbers per view field of HaCaT cells plated on 2D rigid plastic. Cell nucleus were stained with DAPI. None: medium only; DMSO: medium containing 0.1% DMSO. Mean ± s.e.m.; n= 5 samples; 3 separate experiments; * P<0.05, *** P<0.001 (Student’s t-test). Note that even at 10 μM concentration no […]
compounds have less inhibitory effects on these non-cancerous human epidermal […]
(§1) (1 picture or pasted object on this page, not shown here)

CYP 2C19 = biological target: T2, CYP 2C19 (Homo sapiens, UniProt P33261); assay: Cytochromes enzyme inhibition assay, human liver microsomes; format: in vitro ADME; conditions: substrate S-mephenytoin (35 µM)
T2 construct: from tissue; host or cells: human liver microsomes
T2 sequence (P33261 whole entry): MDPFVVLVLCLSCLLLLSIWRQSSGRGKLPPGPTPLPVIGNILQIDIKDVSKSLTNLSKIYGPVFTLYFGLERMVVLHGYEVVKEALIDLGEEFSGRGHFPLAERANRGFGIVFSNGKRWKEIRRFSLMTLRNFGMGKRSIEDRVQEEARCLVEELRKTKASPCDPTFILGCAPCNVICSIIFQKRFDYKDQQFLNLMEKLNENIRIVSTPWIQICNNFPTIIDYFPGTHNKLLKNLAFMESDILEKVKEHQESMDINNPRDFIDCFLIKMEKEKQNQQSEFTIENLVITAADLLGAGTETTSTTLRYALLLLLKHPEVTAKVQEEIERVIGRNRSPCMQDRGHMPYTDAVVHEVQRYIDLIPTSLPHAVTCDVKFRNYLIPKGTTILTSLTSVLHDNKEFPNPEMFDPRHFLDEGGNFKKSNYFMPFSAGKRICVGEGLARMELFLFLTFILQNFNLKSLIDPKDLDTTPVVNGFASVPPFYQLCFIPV

CYP 1A2 = biological target: T3, CYP 1A2 (Homo sapiens, UniProt P05177); assay: as above; format: in vitro ADME; conditions: substrate phenacetin (30 µM)
T3 construct: from tissue; host or cells: human liver microsomes
T3 sequence (P05177 whole entry): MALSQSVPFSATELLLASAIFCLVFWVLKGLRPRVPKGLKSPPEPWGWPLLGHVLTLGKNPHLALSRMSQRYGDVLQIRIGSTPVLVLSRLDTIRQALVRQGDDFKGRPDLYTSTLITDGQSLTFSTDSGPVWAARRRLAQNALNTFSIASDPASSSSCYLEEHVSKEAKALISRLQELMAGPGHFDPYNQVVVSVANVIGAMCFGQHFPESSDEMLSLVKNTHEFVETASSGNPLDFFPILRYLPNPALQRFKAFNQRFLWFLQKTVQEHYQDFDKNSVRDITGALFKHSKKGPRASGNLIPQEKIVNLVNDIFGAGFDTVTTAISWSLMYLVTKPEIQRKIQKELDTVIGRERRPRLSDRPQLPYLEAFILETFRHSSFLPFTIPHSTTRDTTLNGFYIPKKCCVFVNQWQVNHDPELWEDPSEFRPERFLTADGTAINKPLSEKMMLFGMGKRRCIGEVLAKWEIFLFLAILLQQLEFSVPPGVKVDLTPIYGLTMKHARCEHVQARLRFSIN

CYP 3A4 = biological target: T4, CYP 3A4 (Homo sapiens, UniProt P08684); assay: as above; format: in vitro ADME
T4 construct: from tissue; host or cells: human liver microsomes
T4 sequence (P08684 whole entry): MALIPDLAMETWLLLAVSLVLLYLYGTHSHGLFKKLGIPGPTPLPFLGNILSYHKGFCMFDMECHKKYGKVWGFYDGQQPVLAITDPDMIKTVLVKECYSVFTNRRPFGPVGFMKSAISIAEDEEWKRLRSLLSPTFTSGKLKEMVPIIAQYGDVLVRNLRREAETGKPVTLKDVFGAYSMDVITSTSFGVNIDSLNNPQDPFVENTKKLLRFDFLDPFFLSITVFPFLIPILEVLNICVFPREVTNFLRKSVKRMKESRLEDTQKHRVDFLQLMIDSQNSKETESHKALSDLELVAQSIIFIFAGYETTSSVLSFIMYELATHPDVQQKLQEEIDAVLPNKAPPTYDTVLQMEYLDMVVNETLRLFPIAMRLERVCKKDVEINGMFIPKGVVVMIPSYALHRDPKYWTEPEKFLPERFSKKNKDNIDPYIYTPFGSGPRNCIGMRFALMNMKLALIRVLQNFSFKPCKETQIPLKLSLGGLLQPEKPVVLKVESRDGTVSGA

B16-F1 TRCs = assay: Colony growth of B16-F1 TRCs in 90-Pa 3D soft fibrin gels; format: cell-based, murine; conditions: 10 µM added day 3, washed out day 4, 3 days after washout
CYP 2D6 = biological target: T5, CYP 2D6 (Homo sapiens, UniProt P10635); assay: Cytochromes enzyme inhibition assay, human liver microsomes; format: in vitro ADME; conditions: substrate bufuralol (10 µM)
T5 construct: from tissue; host or cells: human liver microsomes
T5 sequence (P10635 whole entry): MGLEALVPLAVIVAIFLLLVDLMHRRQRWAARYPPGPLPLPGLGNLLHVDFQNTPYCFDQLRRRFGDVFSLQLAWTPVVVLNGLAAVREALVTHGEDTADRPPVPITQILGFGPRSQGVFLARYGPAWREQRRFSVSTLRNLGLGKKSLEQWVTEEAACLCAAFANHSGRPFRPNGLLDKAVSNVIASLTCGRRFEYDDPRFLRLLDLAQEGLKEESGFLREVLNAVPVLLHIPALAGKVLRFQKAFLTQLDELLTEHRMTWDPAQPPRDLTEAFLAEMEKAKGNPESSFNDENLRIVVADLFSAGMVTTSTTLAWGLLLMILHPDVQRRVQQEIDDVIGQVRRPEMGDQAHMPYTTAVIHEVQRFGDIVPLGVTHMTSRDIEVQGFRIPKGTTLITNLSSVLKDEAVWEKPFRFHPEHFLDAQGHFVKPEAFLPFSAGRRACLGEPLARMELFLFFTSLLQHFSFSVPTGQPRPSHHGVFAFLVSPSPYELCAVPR

3T3 fibroblasts = assay: Non-cancerous 3T3 fibroblasts on rigid dishes; format: cell-based, murine; conditions: 0.1, 1, or 10 μM, 18 hrs
Protocol: Murine fibroblast cell line 3T3 cells were cultured on rigid plastic and treated with 0.1, 1, or 10 μM WYC-209 at the time of plating and observed for 18 hrs. Cell nucleus were stained with DAPI and apoptotic cells were assayed with PI. None: medium only; DMSO: medium containing 0.1% DMSO. (a) Representative images of cells at hour 18. (b) Quantitation of cell numbers per view field at hour 18. Mean ± s.e.m.; n= 5 randomly chosen view-fields; 3 separate experiments; no significant differences were observed between groups (Student’s t-test). Scale bars, 500 μm.
as §1

[1] = tested on: human ovarian cancer A2780; assay: Colony growth of A2780 TRCs in 90-Pa fibrin gels; format: cell-based
Protocol: (§2) Salmon fibrinogen and thrombin were purchased from Reagent Proteins (CA, USA). 3D fibrin gels were prepared as described previously[5],[6]. In brief, fibrinogen was diluted into 2 mg mL^−1 with T7 buffer (pH 7.4, 50 mM Tris, 150 mM NaCl). Cells were detached from 2D rigid dishes and cell density was adjusted to 10^4 cells per mL. Fibrinogen and cell solution mixture were made by mixing the same volume of fibrinogen solution and cell solution, resulting in 1 mg mL^−1 fibrinogen and 5000 cells per mL in the mixture fibrin gels. A volume of 50 μL cell/fibrinogen mixture was seeded into each well of 96-well plate and mixed well with pre-added 1 μL thrombin (100 U mL^−1). The cell culture plate was then incubated in 37 °C cell culture incubator for 10 min. Finally, 200 μL of DMEM medium containing 10% FBS and antibiotics was added.

Mitf = Mitf expression by qPCR in TRCs; format: cell-based, murine; conditions: 0.1–10 µM for 24 h
Protocol: Total mRNA was isolated from the cells using the Trizol reagent according to the supplier’s instruction (Invitrogen). Reverse transcription (RT) was performed using the TransScript First-strand cDNA Synthesis SuperMix (TransGen), according to the manufacturer’s protocol. Real-time RT-PCR was performed using GoTaq qPCR Master Mix (Promega). The data were normalized against mouse glyceraldehyde 3-phosphate dehydrogenase. The primer sequences are as follows: mouse GAPDH (F: 5′-[…]-3′, R: 5′-[…]-3′); mouse RARα (F: 5′-[…]-3′, R: 5′-[…]-3′); mouse RARβ (F: 5′-[…]-3′, R: 5′-[…]-3′); mouse RARγ (F: 5′-[…]-3′, R:5′-[…]-3′); mouse Sox2 (F: 5′-[…]-3′, R: 5′-[…]-3′); mouse Mitf (F: 5′-[…]-3′, R: 5′-[…]-3′).
Supplementary Figure 39. WYC-209 decreases Sox2 expression but has no effects on Mitf expression. Murine melanoma cells B16-F1 were seeded into 3D soft fibrin gels and then were treated with 0.1% DMSO, 0.1, 1 or 10 µM WYC-209, WYC-209A, or WYC-209B on day 4. mRNA of cells were extracted after 24 hours. Sox2 (a) and Mitf (b) expressions […]
as §1

human lung cancer A549 = assay: Colony growth of A549 TRCs in 90-Pa fibrin gels; format: cell-based
Protocol: as §2

[2] = tested on: human breast cancer MCF-7; assay: Colony growth of MCF-7 TRCs in 90-Pa fibrin gels; format: cell-based
Protocol: as §2

[3] = tested on: human malignant melanoma A375; assay: Colony growth of A375 TRCs in 90-Pa fibrin gels; format: cell-based; conditions: Homo sapiens
Protocol: as §2

Row | solubility at 1 h (Water solubility) [µM] | IC50 (CYP 2C9) [µM] | HaCaT cell numbers on 2D rigid plastic (HaCaT cells) | HaCaT colony growth in 3D soft fibrin gel (HaCaT cells) | Inhibitory effects towards non-cancerous HaCaT cells (HaCaT cells) | IC50 (CYP 2C19) [µM] | IC50 (CYP 1A2) [µM] | IC50 (CYP 3A4; first 3A4 column) [µM] | IC50 (CYP 3A4; second 3A4 column) [µM] | IC50 (CYP 2D6) [µM] | Compound | IC50 (hERG channels) [µM] | TRC growth after compound washout (B16-F1 TRCs) | other results
1 | 89.4 (≈ 32.9 µg/mL) | > 10 | no reduction in cell numbers | still some colony growth | much less inhibitory effects | > 10 | > 10 | > 10 | > 10 | > 10 | CCOC(=O)c1cnc(C#Cc2ccc3c(c2)C(C)(C)CC[S@+]3[O-])nc1 [WYC-209A] | > 30 | failed to resume growing | –
2 | 88.1 (≈ 32.5 µg/mL) | > 10 | no reduction in cell numbers | still some colony growth | much less inhibitory effects | > 10 | > 10 | > 10 | > 10 | > 10 | CCOC(=O)c1cnc(C#Cc2ccc3c(c2)C(C)(C)CC[S@@+]3[O-])nc1 [WYC-209B] | > 30 | failed to resume growing | –

Row | Compound | solubility at 1 h (Water solubility) [µM] | IC50 (CYP 2C9) [µM] | HaCaT cell numbers on 2D rigid plastic (HaCaT cells) | HaCaT colony growth in 3D soft fibrin gel (HaCaT cells) | Inhibitory effects towards non-cancerous HaCaT cells (HaCaT cells) | IC50 (CYP 2C19) [µM] | IC50 (CYP 1A2) [µM] | IC50 (CYP 3A4; first 3A4 column) [µM] | IC50 (CYP 3A4; second 3A4 column) [µM] | IC50 (CYP 2D6) [µM] | IC50 (hERG channels) [µM] | TRC growth after compound washout (B16-F1 TRCs) | other results
3 | CCOC(=O)c1cnc(C#Cc2ccc3c(c2)C(C)(C)CC[S+]3[O-])nc1 (centres unmarked) [WYC-209] | – | – | no reduction in cell numbers | still some colony growth | much less inhibitory effects | – | – | – | – | – | – | failed to resume growing | Impact / toxicity on non-cancerous 3T3 fibroblasts (3T3 fibroblasts): little toxicity; also recorded: little impact; IC50 ([1]; 0 h, A2780, treated on day 0): 0.23 µM; inhibition at 10 µM ([1]; A2780, 10 μM): 100%; Change in Mitf expression (Mitf): did not change; IC50 (human lung cancer A549; 0 h, A549, treated on day 0): 0.1 µM; inhibition at 10 µM (human lung cancer A549; A549, 10 μM): 100%; IC50 ([2]; MCF7, 0 h, MCF-7, treated on day 0): 0.1 µM; inhibition at 10 µM ([2]; MCF7, MCF-7, 10 μM): 100%; IC50 ([3]; A-375, 0 h, A375, treated on day 0): 0.38 µM; inhibition at 10 µM ([3]; A-375, A375, 10 μM): 100%
